Measurements from patent publication US20070270403A1 (priority 2003, published 2007).
Where two headings read alike, the source gives them in different places.

Columns and labels:
[1] = humans, cited from earlier work
[2] = tested on: 5-hydroxyindoleacetic acid (5-HIAA) in NAcc; details: risperidone 0.2 mg/kg s.c. and 2.0 mg/kg s.c., time-dependent; cited from earlier work
DA2 receptors = DA2 receptors (Homo sapiens, UniProt P14416); details: ketanserin: DA receptors; cited from earlier work
[3] = tested on: Sprague-Dawley laboratory rats; experiment: Stereotypy (fine movements of sniffing and grooming) by infrared photobeams (risperidone studies); type: in vivo, Sprague-Dawley Rattus Norvegicus
Method: (§1) Behaviors were monitored with infrared photobeams which surrounded the faradaic chamber. Open-field behaviors of locomotion (ambulations) and stereotypy (fine movements of sniffing and grooming) were recorded in sec and repeated every five min for a period of 2 hrs before each treatment and a period of 2 hrs after each treatment. Open-field behaviors were monitored simultaneously with in vivo microvoltammetric recordings of monoamines.
(§2) The first hr pre-drug, allowed exploratory behavior. Exploratory behavior is defined as open-field behavior of ambulations (forward locomotion) and stereotypy (fine movements of sniffing and grooming), wherein animals respond to the stimuli of a novel environment with a high frequency of behavioral counts. The second hr pre-drug allowed the animal to become habituated before treatment. […] In the acute studies, each drug was administered […]. For the subacute studies, twenty four hrs later, the animals were again placed in the faradaic behavioral chamber and no further drug was administered. Each animal was monitored for possible recovery, withdrawal or after-effects. of each treatment WHILE open-field behaviors of locomotions and stereotypy were monitored with computerized infrared photocell beams which surround the faradaic chamber.
(§3) The faradaic chamber was made of plexiglas and covered with copper wire to refract possible electrical artifacts (dimensions: 24 inch (width) by 18 inch (depth) by 23.5 inch (height)). A 16 by 16 array of infrared photobeams, held in place by an aluminum frame, was situated ¾ inch above the Plexiglas floor of the chamber to detect locomotor and stereotypic movements. Photobeams were sampled by a Pentium computer to define the x-y position of the animal within a 1.5 inch resolution every 100 msec. When an x-y position was calculated, it was used to define a particular behavioral parameter. This system is a modified version of an Activity Pattern Monitor (APM) (San Diego Instruments, San Diego, Calif.). Behavioral data is presented in terms of Frequency of Events.
(§4) Neurochemical and behavioral data, derived from the last thirty minutes of the habituation period, provided the baseline data. […] Where appropriate, data points in the time course were subjected to 95% Confidence Limits (C.L.).

DA2 receptor = molecular target: T1, DA2 receptor (Rattus norvegicus, UniProt P61169); details: cited from earlier work
T1 construct: host or cells: brain (nucleus accumbens) of dosed animals
T1 sequence (P61169 whole entry): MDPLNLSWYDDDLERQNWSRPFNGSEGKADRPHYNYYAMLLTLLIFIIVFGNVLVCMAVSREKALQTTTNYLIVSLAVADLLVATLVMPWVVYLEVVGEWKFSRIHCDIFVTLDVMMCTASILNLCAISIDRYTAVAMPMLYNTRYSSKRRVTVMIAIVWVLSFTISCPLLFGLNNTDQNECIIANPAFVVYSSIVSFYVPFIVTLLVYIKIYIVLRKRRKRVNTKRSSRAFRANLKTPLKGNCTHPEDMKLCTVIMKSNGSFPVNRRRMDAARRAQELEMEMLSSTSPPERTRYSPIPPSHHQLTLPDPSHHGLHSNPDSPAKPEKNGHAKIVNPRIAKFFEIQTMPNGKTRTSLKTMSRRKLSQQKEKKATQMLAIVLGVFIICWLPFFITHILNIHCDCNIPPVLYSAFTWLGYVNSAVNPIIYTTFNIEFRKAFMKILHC

5-HT release in NAcc [4] = experiment: In vivo microvoltammetry, 5-HT release in NAcc (risperidone studies); parameters: species or system Sprague-Dawley Rattus Norvegicus
Method: (§5) In vivo microvoltammetry was used to detect dopamine (DA) and serotonin (5-HT) release from Nucleus Accumbens (NAcc) of freely moving, male, Sprague Dawley laboratory rats, while animals' locomotor (forward ambulations) and stereotypic behavior (fine movements of sniffing and grooming) were monitored at the same time with infrared photobeams. Monoamine release mechanisms were determined by using a depolarization blocker, gamma-butyrolactone (γBL). Miniature carbon sensors, BRODERICK PROBE® Lauric Acid Microelectrodes, smaller than a human hair, were used in conjunction with a semidifferential electrochemical circuit, to detect release of each monoamine in separate signals and within seconds. […] The hypothesis for the present studies is derived from a growing body of evidence that cocaine-induced psychosis and schizophrenic psychosis share similar neurochemical and behavioral manifestations.
(§6) Animals were purchased from Charles River Laboratories, Kingston, N.Y. and were housed in our animal care facilities for two weeks before surgery was performed. The Animal Care Facility operates under the auspices of the CUNY, City College Institutional Animal Care and Use Committee (IACUC) in compliance with National Institute of Health (NIH) guidelines. The weight range for the animals, at the time of the studies, was 350-475 g. Animals were group housed before surgery, individually housed after surgery and fed Purina Rat Chow and water ad libitum. A twelve hr dark-light cycle was maintained both in the housing of the animals and throughout the experimental studies. […] A Ag/AgCl reference electrode was placed in contact with dura, 7 mm anteriorally and contralaterally to the indicator microelectrode. A stainless steel auxiliary microelectrode, was placed in contact with dura.
(§7) In vivo microvoltammetric studies on conscious Sprague-Dawley laboratory rats were begun nine to fifteen days after the aseptic surgical operations were performed. On each experimental day, animals were placed in a Plexiglas-copper faradaic chamber. The three-microelectrode assembly, enclosed within the animal's prosthetic acrylic cap, was connected to a CV37 detector by means of a mercury commutator (Br. Res. Instr., Princeton, N.J.), a flexible cable, and a mating connector (BJM Electronics, Staten Island, N.Y.). The CV37 detector was electrically connected to a Minigard surge suppresser (Jefferson Electric, Magnetek, N.Y.) which was then connected to an electrical ground in isolation. […] Each animal was used as its own control. In vivo microvoltammetric scans were recorded in sec and repeated every five min for a period of 2 hrs before each treatment and a period of two hrs after each treatment.
as §2

[5] = tested on: Sprague-Dawley laboratory rats; experiment: Locomotion (ambulations) by infrared photobeams (risperidone studies); type: in vivo, Sprague-Dawley Rattus Norvegicus
Method: as §1, §2, §3, §4

DA release in NAcc [6] = experiment: In vivo microvoltammetry, DA release in NAcc (risperidone studies); parameters: species or system Sprague-Dawley Rattus Norvegicus
Method: as §5, §6
In vivo microvoltammetric studies on conscious Sprague-Dawley laboratory rats were begun nine to fifteen days after the aseptic surgical operations were performed. On each experimental day, animals were placed in a Plexiglas-copper faradaic chamber. The three-microelectrode assembly, enclosed within the animal's prosthetic acrylic cap, was connected to a CV37 detector by means of a mercury commutator (Br. Res. Instr., Princeton, N.J.), a flexible cable, and a mating connector (BJM Electronics, Staten Island, N.Y.). […] In vivo microvoltammetric scans were recorded in sec and repeated every five min for a period of 2 hrs before each treatment and a period of two hrs after each treatment.
The first hr pre-drug, allowed exploratory behavior. […] Each animal was monitored for possible recovery, withdrawal or after-effects. of each treatment WHILE open-field behaviors of locomotions and stereotypy were monitored with computerized infrared photocell beams which surround the faradaic chamber.

5-HT2A receptors = 5-HT2A receptors (Homo sapiens, UniProt P28223); details: cited from earlier work
Chain of 5-HT2A receptors (P28223 whole entry): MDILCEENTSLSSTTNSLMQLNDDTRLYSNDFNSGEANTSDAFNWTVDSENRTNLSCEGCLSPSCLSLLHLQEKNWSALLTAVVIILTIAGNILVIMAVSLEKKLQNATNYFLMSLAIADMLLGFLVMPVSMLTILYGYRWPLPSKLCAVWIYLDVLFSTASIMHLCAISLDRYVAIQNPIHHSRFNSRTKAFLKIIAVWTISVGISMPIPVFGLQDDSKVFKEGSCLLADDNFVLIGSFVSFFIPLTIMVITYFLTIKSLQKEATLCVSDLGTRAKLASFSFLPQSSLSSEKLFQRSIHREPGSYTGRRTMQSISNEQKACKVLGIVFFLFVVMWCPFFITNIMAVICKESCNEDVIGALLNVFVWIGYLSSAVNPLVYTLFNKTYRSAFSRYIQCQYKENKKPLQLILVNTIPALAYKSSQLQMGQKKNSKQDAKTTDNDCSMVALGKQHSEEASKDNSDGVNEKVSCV

5-HT release in NAcc [7] = experiment: In vivo microvoltammetry, 5-HT release in NAcc (clozapine studies); parameters: species or system Sprague-Dawley Rattus Norvegicus; details: ketanserin 3 mg/kg s.c. substituted for clozapine
Method: (§8) There is an increasing awareness that a psychosis, similar to that of schizophrenic psychosis, can be derived from cocaine addiction. […] Release mechanisms for monoamines, were determined by using a depolarization blocker, gamma-butyrolactone (γBL). […] Acute and Subacute studies were performed for each treatment group.
(§9) The stereotaxic equipment was purchased from David Kopf Instruments, Tujunga, Calif. A Ag/AgCl reference electrode was placed in contact with dura, 7 mm anteriorally and contralaterally to the indicator microelectrode. A stainless steel auxiliary microelectrode was placed in contact with dura. BRODERICK PROBE® microelectrodes were manufactured on site.
as §7, with “the animal was” for “animals were”, “control. Changes in synaptic concentrations of DA and 5-HT are presented as percent change (% of control) in order to minimize normal between-animal variations. […]” for “control.”
(§10) Potentials were applied with a CV37 detector (BAS, West Lafayette, Ind.). Potentials were applied from −0.2V to +0.4V with respect to a Ag/AgCl (1M NaCl) electrode, at a scan rate of 10 mV/sec at time constants of 5 and 1 tau. One scan was completed in 60 sec. Non-faradaic charging current was eliminated in the first 25 sec.
(§11) Calibration curves were determined experimentally, in vitro, in a freshly prepared deoxygenated physiological saline-phosphate buffer solution (0.01 M, pH=7.4). We use ultra pure Nitrogen (N2) (T. W. Smith Corp., Bklyn, N.Y.) to deoxygenate the buffer solution. […] Calibration studies were also performed in freshly prepared deoxygenated buffer solutions containing phosphotidylethanolamine (PEA), combined with bovine serum albumin (BSA) (Sigma Aldrich, St. Louis, Mo.), a solution which closely mimics brain constituents. […] Detection limits for basal synaptic concentrations of DA and 5-HT in NAcc were 12 nM and 2 nM respectively.

[8] = tested on: Sprague-Dawley laboratory rats; experiment: Locomotor activity (ambulations) by infrared photobeams (clozapine studies); type: in vivo, Sprague-Dawley Rattus Norvegicus; details: ketanserin 3 mg/kg s.c. substituted for clozapine
Excerpt: Locomotor activity (ambulation) was monitored with infrared photobeams at the same time as DA and 5-HT release in NAcc was detected with BRODERICK PROBES® in conjunction with In Vivo Microvoltammetry. The chamber was faradaic, covered with copper to refract possible electrical artifacts (dimensions: 24 in (width) by 18 in (depth) by 23.5 in (height)). A 16 by 16 array of these infrared photobeams, were held in place by an aluminum frame which was situated ¾ in above the Plexiglas floor of the chamber to detect locomotor activity. Photobeams were sampled by a Pentium computer to define the x-y position of the animal within a 1.5 in resolution every 100 msec. When an x-y position was calculated, it was used to define the frequency of locomotor activity in counts. The locomotor activity system is a modified version of an Activity Pattern Monitor (APM) (San Diego Instruments, San Diego, Calif.). Behavioral data is presented in absolute frequency, i.e., number of counts recorded.
The first hr pre-drug allowed exploratory behavior. Exploratory behavior is defined as open-field behavior of ambulations (forward locomotion) wherein animals respond to the stimuli of a novel environment with high frequency of behavioral counts. The second hr pre-drug allowed the animal to become habituated before treatment.
In the Acute studies, each drug was administered at the end of the habituation period. Baseline (control) values were taken every five min for the last thirty min of the habituation period at which time drug injection(s) took place. Electrochemical recordings for DA and 5-HT release in NAcc, were continued for two hrs; at the same time, locomotor behavior continued to be monitored and recorded with infrared photobeams. At the end of the 2 hr drug(s) study, animals were then placed back in their home cages.
In the Subacute studies, which took place twenty-four hrs later, the animals were again placed in the faradaic behavioral chamber and no further drug was administered. Recordings of separate electrochemical signals for DA and 5-HT release in NAcc, were taken for one hr; at the same time, locomotor behavior was monitored and recorded with infrared photobeams.
as §4

DA release in NAcc [9] = experiment: In vivo microvoltammetry, DA release in NAcc (clozapine studies); parameters: species or system Sprague-Dawley Rattus Norvegicus; details: ketanserin 3 mg/kg s.c. substituted for clozapine
Method: as §8, §9
as §7, with “the animal was” for “animals were”, “control. Changes in synaptic concentrations of DA and 5-HT are presented as percent change (% of control) in order to minimize normal between-animal variations. […]” for “control.”
as §10, §11

[10] = 24 hr after risperidone 2 mg/kg s.c.
[11] = 24 hr after single dose, no further drug
[12] = risperidone 2 mg/kg s.c. + cocaine 10 mg/kg i.p., entire 2 hr period
[13] = risperidone 2 mg/kg s.c., cocaine 10 mg/kg i.p. or both, 2 hr
[14] = risperidone 2 mg/kg s.c. + cocaine 10 mg/kg i.p., versus cocaine group

Chain of DA2 receptors (P14416 whole entry): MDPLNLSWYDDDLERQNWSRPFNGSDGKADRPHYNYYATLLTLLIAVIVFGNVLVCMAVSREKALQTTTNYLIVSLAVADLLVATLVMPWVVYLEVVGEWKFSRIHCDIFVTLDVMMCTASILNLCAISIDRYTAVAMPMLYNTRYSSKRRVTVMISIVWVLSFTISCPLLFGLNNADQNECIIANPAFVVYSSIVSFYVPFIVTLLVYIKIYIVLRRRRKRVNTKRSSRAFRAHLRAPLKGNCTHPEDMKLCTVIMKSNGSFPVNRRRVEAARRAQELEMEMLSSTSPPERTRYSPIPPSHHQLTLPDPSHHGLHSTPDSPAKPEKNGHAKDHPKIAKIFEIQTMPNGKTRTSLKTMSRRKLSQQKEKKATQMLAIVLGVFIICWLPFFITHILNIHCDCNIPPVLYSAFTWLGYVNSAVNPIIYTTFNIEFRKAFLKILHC

What does the source list for `Cc1nc2n(c(=O)c1CCN1CCC(c3noc4cc(F)ccc34)CC1)CCCC2` [Risperidone, risperidone]?
half-life ([1]; fast metabolizers): 3 h; half-life ([1]; slow metabolizers): 20 h; Increase in 5-HIAA concentrations above baseline (up to) [2]: up to 20%; Affinity for DA2 receptors (DA2 receptors): high affinity; Stereotypy maximum frequency, Day 2 (Subacute) [3, 10]: about 50 counts; Stereotypy Day 2 versus Day 1 baseline, Subacute [3, 11]: increased stereotypy to a statistically significant degree; Stereotypy maximum frequency with drug treatment, Day 1 ([3]; risperidone 2 mg/kg s.c.): 12 counts; Effect on cocaine-induced stereotypic activity, Acute [3, 12]: blocked; Stereotypy versus baseline (habituation), Day 1 Acute [3, 13]: did not affect; ED50 of DA2 receptor occupancy (DA2 receptor; NAcc, [3H] spiperone labeling studies): 1.0 mg/kg; DA2 receptor occupancy (DA2 receptor; high dose risperidone): 70%; 5-HT release in NAcc Day 2 versus Day 1 baseline, Subacute (5-HT release in NAcc [4]; 24 hr after single dose, no further drug, 1 hr, cocaine: 15, 20, 50, 55 min time points): significantly increased; Increase in 5-HT release in NAcc during the time course (up to) (5-HT release in NAcc [4]; Acute, risperidone 2 mg/kg s.c.): about 60%; Further increase in 5-HT release on Day 2 compared to drug effect on Day 1 (approximate average) (5-HT release in NAcc [4]; Subacute, risperidone 2 mg/kg s.c. on Day 1): ~25%; Effect on cocaine-induced 5-HT release, Acute (5-HT release in NAcc [4]; [12]): blocked; 5-HT release in NAcc versus baseline (habituation), Day 1 Acute (5-HT release in NAcc [4]; [13]): significantly increased; Locomotor activity frequency, Day 2 (Subacute) [5, 10]: about 200 counts; Locomotion Day 2 versus Day 1 baseline, Subacute [5, 11]: did not affect locomotion to a statistically significant degree; Locomotor activity frequency with drug treatment, Day1 ([5]; risperidone 2 mg/kg s.c.): 50 counts; Effect on cocaine-induced locomotor (psychostimulant) activity, Acute [5, 12]: blocked; Locomotor activity (ambulations) versus baseline (habituation), Day 1 Acute [5, 13]: did not affect; DA release in NAcc Day 2 versus Day 1 baseline, Subacute (DA release in NAcc [6]; 24 hr after single dose (risperidone 2 mg/kg s.c., cocaine 10 mg/kg i.p. or both), no further drug): returned to baseline; DA release in NAcc versus baseline (habituation), Day 1 Acute (DA release in NAcc [6]; risperidone 2 mg/kg s.c. (N=5) or cocaine 10 mg/kg i.p. (N=4), 2 hr): significantly increased; Effect on cocaine-induced DA release, Acute, first hr (DA release in NAcc [6]; [14]): significant blockade; Effect on cocaine-induced DA release, Acute, second hr (DA release in NAcc [6]; [14]): did not completely block

For `O=C(c1ccc(F)cc1)C1CCN(CCn2c(=O)[nH]c3ccccc3c2=O)CC1` [ketanserin], which “Affinity for 5-HT2A receptors” value (5-HT2A receptors) is on record?
Its value is “high affinity”.

What about the “Affinity for DA2 receptors” value (DA2 receptors) of the same compound?
The value was “does not bind”.

And the “Blockade of cocaine-induced 5-HT release, Acute, compared with clozapine” value (5-HT release in NAcc [7])?
The value was “weaker than that of clozapine”.

What about the “Blockade of cocaine-induced psychomotor stimulant behavior, Acute, compared with clozapine” value [8] of the same compound?
Its value is “weaker than that of clozapine”.

What about the “Blockade of cocaine-induced DA release, Acute, compared with clozapine” value (DA release in NAcc [9]) of the same compound?
The value was “weaker than that of clozapine”.
